Measurements: patent US6211244A, “Calcium receptor-active compounds” (priority 1995, dated 2001)
Read-outs that look alike come from different tables or passages of the source.

Target: T1, human calcium receptor (Homo sapiens, UniProt P41180, R990G)
T1 construct: expressed in transfected cells; host or cells: HEK 293
T1 sequence (P41180 20-1078 R990G): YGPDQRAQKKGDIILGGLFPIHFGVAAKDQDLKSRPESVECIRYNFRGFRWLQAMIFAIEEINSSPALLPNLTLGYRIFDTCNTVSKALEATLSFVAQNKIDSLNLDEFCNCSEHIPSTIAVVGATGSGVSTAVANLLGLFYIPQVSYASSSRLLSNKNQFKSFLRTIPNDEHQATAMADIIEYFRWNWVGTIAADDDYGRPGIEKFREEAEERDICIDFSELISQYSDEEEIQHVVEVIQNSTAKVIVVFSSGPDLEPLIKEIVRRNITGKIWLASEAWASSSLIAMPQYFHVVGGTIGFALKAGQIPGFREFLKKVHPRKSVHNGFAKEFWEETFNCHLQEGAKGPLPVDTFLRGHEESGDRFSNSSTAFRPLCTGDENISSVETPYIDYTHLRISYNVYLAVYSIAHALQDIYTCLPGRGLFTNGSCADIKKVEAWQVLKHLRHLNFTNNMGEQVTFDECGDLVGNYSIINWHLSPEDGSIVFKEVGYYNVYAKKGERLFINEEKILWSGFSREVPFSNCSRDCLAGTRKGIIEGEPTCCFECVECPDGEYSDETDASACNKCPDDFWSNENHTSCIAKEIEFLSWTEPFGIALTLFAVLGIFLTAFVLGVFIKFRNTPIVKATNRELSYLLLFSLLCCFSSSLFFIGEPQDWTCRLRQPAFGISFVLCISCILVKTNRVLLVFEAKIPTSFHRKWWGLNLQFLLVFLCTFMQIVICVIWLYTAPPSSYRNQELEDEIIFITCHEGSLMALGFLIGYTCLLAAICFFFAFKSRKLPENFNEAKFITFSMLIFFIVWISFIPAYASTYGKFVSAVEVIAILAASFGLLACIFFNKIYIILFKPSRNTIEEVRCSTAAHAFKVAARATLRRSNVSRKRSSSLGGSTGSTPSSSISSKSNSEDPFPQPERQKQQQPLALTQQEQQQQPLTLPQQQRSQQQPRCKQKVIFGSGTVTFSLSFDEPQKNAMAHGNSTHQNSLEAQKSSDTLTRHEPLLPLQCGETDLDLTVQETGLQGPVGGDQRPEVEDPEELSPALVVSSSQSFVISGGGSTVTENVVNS
Assay: increases in [Ca^2+ ]i in HEK-293 cells expressing the human calcium receptor (fura-2 loaded HEK 293/pHuPCaR4.0 cells), % activity
Type: cell-based

## CC(NCCCc1ccccc1)c1ccccc1 (stereo not shown) [Compound 3H]
330 ng/mL
  % activity: 84%

## COc1cccc([C@@H](C)NCC=Cc2ccc(C(C)C)cc2)c1 [Compound 12E, (R)-N-[3-(4-isopropylphenyl)prop-2-enyl]-1-(3-methoxyphenyl)ethylamine]
33 ng/mL
  % activity: 73%
330 ng/mL
  % activity: 121%
3300 ng/mL
  % activity: 117%

## CC(NCc1cccc2ccccc12)c1ccccc1 (stereo not shown) [Compound 4I]
33 ng/mL
  % activity: 9%
330 ng/mL
  % activity: 40%

## CCOC(=O)COc1cccc([C@@H](C)NCc2ccc3ccccc3c2)c1 [Compound 11D]
33 ng/mL
  % activity: 50%
330 ng/mL
  % activity: 96%

## COc1ccc(CNC(C)c2cccc(C)c2)cc1C (stereo not shown) [Compound 23Y]
33 ng/mL
  % activity: 61%
330 ng/mL
  % activity: 87%
3300 ng/mL
  % activity: 106%

## COc1ccc(CNC(C)c2ccccc2C(F)(F)F)cc1C (stereo not shown) [Compound 24B]
33 ng/mL
  % activity: 34%
330 ng/mL
  % activity: 61%
3300 ng/mL
  % activity: 76%

## C[C@@H](NCc1ccc([N+](=O)[O-])cc1)c1cccc2ccccc12 [Compound 13W]
33 ng/mL
  % activity: 71%
330 ng/mL
  % activity: 109%

## COc1cccc([C@@H](C)NCC=Cc2c(C)cc(C)cc2C)c1 [Compound 12D, (R)-N-[3-(2,4,6-trimethylphenyl)prop-2-enyl]-1-(3-methoxyphenyl)ethylamine]
33 ng/mL
  % activity: 52%
330 ng/mL
  % activity: 109%
3300 ng/mL
  % activity: 128%

## COc1cccc(C(C)NCC=Cc2ccccc2OC)c1 (stereo not shown) [Compound 8T]
33 ng/mL
  % activity: 55%
330 ng/mL
  % activity: 85%

## COc1cccc([C@@H](C)NC[C@@H](C)c2ccc(CC(C)C)cc2)c1 [Compound 13Y]
33 ng/mL
  % activity: 2%
330 ng/mL
  % activity: 47%
3300 ng/mL
  % activity: 106%

## COc1ccc(CNC(C)c2c(OC)ccc3ccccc23)cc1C (stereo not shown) [Compound 18B]
33 ng/mL
  % activity: 69%
330 ng/mL
  % activity: 96%
3300 ng/mL
  % activity: 111%

## COc1ccc(CNC(C)c2ccccc2C)cc1C (stereo not shown) [Compound 23W]
33 ng/mL
  % activity: 81%
330 ng/mL
  % activity: 97%
3300 ng/mL
  % activity: 117%

## CC(NC(C)c1cccc2ccccc12)c1ccc(Cl)c(Cl)c1 (stereo not shown) [Compound 17K]
33 ng/mL
  % activity: 73%
330 ng/mL
  % activity: 97%
3300 ng/mL
  % activity: 98%

## CC(NC(C)c1cccc2ccccc12)c1ccc2c(c1)-c1ccccc1-2 (stereo not shown) [Compound 10R]
33 ng/mL
  % activity: 42%
330 ng/mL
  % activity: 82%

## COc1ccc(CNC(C)c2ccc(F)c3ccccc23)cc1C (stereo not shown) [Compound 18A]
33 ng/mL
  % activity: 88%
330 ng/mL
  % activity: 111%

## COc1cccc([C@@H](C)NCc2ccc(OC)c(OC)c2)c1 [Compound 25K]
33 ng/mL
  % activity: 86%
330 ng/mL
  % activity: 107%
3300 ng/mL
  % activity: 124%

## COc1cccc([C@@H](C)NC2Cc3ccccc3C2)c1 [Compound 25P]
33 ng/mL
  % activity: 75%
330 ng/mL
  % activity: 81%
3300 ng/mL
  % activity: 90%

## COc1cccc([C@@H](C)NC[C@H](C)C=Cc2ccccc2)c1 [Compound 25H, (R,R)-N-(2-methyl-4-phenybut-3-enyl)-1-(3-methoxyphenyl)ethylamine]
33 ng/mL
  % activity: 89%
330 ng/mL
  % activity: 107%
3300 ng/mL
  % activity: 115%

## COc1ccc(CNC(C)c2ccc(I)cc2)cc1C (stereo not shown) [Compound 23T]
33 ng/mL
  % activity: 60%
330 ng/mL
  % activity: 74%
3300 ng/mL
  % activity: 102%

## CC(NCCC(c1ccccc1)c1ccccc1)c1ccccc1Cl (stereo not shown) [Compound 2X]
  % activity: 15
330 ng/mL
  % activity: 66%

## COc1cccc([C@@H](C)NCCCc2cc(F)ccc2F)c1 [Compound 24K]
33 ng/mL
  % activity: 78%
330 ng/mL
  % activity: 106%

## COc1cccc([C@@H](C)NCC(C)c2ccccc2)c1 (stereo partly shown) [Compound 25N]
33 ng/mL
  % activity: 46%
330 ng/mL
  % activity: 73%
3300 ng/mL
  % activity: 94%

## COc1cccc([C@@H](C)NCCCc2ccccc2C(F)(F)F)c1 [Compound 21O]
33 ng/mL
  % activity: 75%
330 ng/mL
  % activity: 109%

## C[C@@H](NCCCc1ccccc1Cl)c1cccc(OCC(F)F)c1 [Compound 21V]
33 ng/mL
  % activity: 99%
330 ng/mL
  % activity: 116%
3300 ng/mL
  % activity: 122%

## COc1cccc([C@@H](C)NCC=Cc2cccc(C)c2)c1 [Compound 12G, (R)-N-[3-(3-methylphenyl)prop-2-enyl]-1-(3-methoxyphenyl)ethylamine]
33 ng/mL
  % activity: 81%
330 ng/mL
  % activity: 139%
3300 ng/mL
  % activity: 139%

## COc1ccc(CN[C@H](C)c2cccc3ccccc23)cc1 [Compound 13U]
33 ng/mL
  % activity: 79%
330 ng/mL
  % activity: 108%

## COc1cccc([C@@H](C)NCc2ccc3c(c2)OCO3)c1 [Compound 25J]
33 ng/mL
  % activity: 105%
330 ng/mL
  % activity: 123%
3300 ng/mL
  % activity: 119%

## C[C@@H](NCc1cccc2ccccc12)c1cccc2ccccc12 [Compound 25L]
33 ng/mL
  % activity: 85%
330 ng/mL
  % activity: 97%
3300 ng/mL
  % activity: 97%

## COc1cccc([C@@H](C)NCCCc2ccc(C)cc2)c1 [Compound 8X]
33 ng/mL
  % activity: 40%
330 ng/mL
  % activity: 75%

## Cc1cc(C(C)NC(C)c2cccc3ccccc23)ccc1OCc1ccccc1 (mixture of isomers) [Compound 25X]
33 ng/mL
  % activity: 72%
330 ng/mL
  % activity: 94%
3300 ng/mL
  % activity: 96%

## C[C@@H](NCc1ccc(N(C)C)cc1)c1cccc2ccccc12 [Compound 13V]
33 ng/mL
  % activity: 79%
330 ng/mL
  % activity: 110%

## Cc1ccc(CNCc2cccc3c(Br)cccc23)cc1C [Compound 23D]
33 ng/mL
  % activity: 35%
330 ng/mL
  % activity: 66%
3300 ng/mL
  % activity: 91%

## COc1ccc([C@H](C)N[C@H](C)c2cccc3ccccc23)cc1C [Compound 25U]
33 ng/mL
  % activity: 95%
330 ng/mL
  % activity: 107%
3300 ng/mL
  % activity: 107%

## COc1ccc(CNC(C)c2cccc(-c3ccccc3)c2)cc1C (stereo not shown) [Compound 18T]
33 ng/mL
  % activity: 52%
330 ng/mL
  % activity: 74%
3300 ng/mL
  % activity: 99%

## CC(NCc1ccc(-c2ccccc2)cc1)c1cccc2ccccc12 (stereo not shown) [Compound 10N]
33 ng/mL
  % activity: 77%
330 ng/mL
  % activity: 97%
3300 ng/mL
  % activity: 106%

## Cc1ccc(CNC(C)c2ccc(C(C)(C)C)cc2)cc1 (stereo not shown) [Compound 14B]
33 ng/mL
  % activity: 11%
330 ng/mL
  % activity: 55%
3300 ng/mL
  % activity: 75%

## CC(NC(C)c1cccc2ccccc12)c1ccccc1 (stereo not shown) [Compound 14P]
33 ng/mL
  % activity: 78%
330 ng/mL
  % activity: 103%
3300 ng/mL
  % activity: 112%

## COc1ccc(C(N[C@H](C)c2cccc3ccccc23)C2CC2)cc1 (stereo partly shown) [Compound 17H]
33 ng/mL
  % activity: 111%
330 ng/mL
  % activity: 124%
3300 ng/mL
  % activity: 126%

## COc1cccc(C(C)NCc2ccc(C=Cc3ccccc3)cc2)c1 (stereo not shown) [Compound 12M]
33 ng/mL
  % activity: 56%
330 ng/mL
  % activity: 86%
3300 ng/mL
  % activity: 98%

## COc1ccc(CNC(C)c2cccc(Cl)c2)cc1C (stereo not shown) [Compound 23N]
33 ng/mL
  % activity: 50%
330 ng/mL
  % activity: 96%

## COc1cccc(C(C)NCCCc2cc(OC)c(OC)c(OC)c2)c1 (stereo not shown) [Compound 8S]
33 ng/mL
  % activity: 42%
330 ng/mL
  % activity: 73%

## CC(N[C@H](C)c1ccccc1)c1cccc2ccccc12 (stereo partly shown) [Compound 4G, N-[1-(1-naphthyl)ethyl)-1-phenylethylamine]
33 ng/mL
  % activity: 46%
330 ng/mL
  % activity: 83%
